Results reported in patent US5750521A, “Mercaptoacetylamide disulfide derivatives useful as inhibitors of enkephalinase and ACE” (Hoechst Marion Roussel Inc., priority 1996, dated 1998).

Target: T1, ACE, rat kidney preparations (Rattus norvegicus, UniProt P47820)
T1 construct: compound- or vehicle-dosed rat kidney preparations; from tissue; host or cells: kidney of male Sprague-Dawley rats
T1 sequence (P47820 36-1313): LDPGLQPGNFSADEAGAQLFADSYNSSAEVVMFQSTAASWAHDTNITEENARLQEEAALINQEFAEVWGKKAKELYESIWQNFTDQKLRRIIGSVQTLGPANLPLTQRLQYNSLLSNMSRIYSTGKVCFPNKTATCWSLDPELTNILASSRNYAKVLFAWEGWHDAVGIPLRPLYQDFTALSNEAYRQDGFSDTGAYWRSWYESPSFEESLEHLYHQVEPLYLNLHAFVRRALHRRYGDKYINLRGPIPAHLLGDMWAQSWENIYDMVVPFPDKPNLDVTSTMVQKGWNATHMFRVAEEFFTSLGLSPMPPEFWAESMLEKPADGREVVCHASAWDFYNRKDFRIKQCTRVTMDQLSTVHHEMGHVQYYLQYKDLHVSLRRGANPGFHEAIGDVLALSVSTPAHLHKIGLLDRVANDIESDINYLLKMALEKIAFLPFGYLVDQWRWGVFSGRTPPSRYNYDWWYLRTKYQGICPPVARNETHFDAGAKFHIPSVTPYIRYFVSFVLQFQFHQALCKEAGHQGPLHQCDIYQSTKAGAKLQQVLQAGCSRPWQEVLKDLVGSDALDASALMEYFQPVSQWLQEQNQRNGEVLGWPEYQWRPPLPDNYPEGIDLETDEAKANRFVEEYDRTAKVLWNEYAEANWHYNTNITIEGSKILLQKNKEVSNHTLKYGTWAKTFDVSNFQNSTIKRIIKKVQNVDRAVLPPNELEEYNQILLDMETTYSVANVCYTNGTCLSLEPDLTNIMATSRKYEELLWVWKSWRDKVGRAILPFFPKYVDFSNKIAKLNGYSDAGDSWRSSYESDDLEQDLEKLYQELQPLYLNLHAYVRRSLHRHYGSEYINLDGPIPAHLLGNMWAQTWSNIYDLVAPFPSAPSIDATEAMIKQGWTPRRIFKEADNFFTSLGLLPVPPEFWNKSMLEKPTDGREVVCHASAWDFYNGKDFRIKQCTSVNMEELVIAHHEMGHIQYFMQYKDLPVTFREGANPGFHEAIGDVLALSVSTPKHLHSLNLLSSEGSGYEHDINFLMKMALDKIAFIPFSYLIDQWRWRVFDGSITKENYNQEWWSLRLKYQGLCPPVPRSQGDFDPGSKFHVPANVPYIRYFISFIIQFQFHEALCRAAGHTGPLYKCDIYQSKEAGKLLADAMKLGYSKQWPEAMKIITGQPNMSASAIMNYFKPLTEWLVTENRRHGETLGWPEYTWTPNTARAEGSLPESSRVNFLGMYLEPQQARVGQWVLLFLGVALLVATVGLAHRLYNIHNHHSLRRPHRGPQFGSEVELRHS
Assay: radiometric ACE assay with tritiated hippuryl-glycyl-glycine
Format: biochemical
Details: 1 μM enalaprilat; compound- or vehicle-dosed rat kidney preparations

Question: For `C[C@H](N[C@@H](CCc1ccccc1)C(=O)O)C(=O)N1CCC[C@H]1C(=O)O` [enalaprilat], which “inhibition of radioactive product formation” value is on record?
Answer: Complete inhibition
